Reference: PubChem BioAssay AID1259407 (Chemical Carcinogenesis Research Information System (CCRIS), 2018)
Activity calls are given as the source filed them. The rule behind the calls is not given here.

System: CCRIS mutagenicity, Ames/micronucleus/aberration tests
Experiment: CCRIS mutagenicity studies
[1] = Test System: AMES SALMONELLA TYPHIMURIUM, Strain/Indicator: TA98, Metabolic Activation: NONE, Method: STANDARD PLATE
[2] = Test System: AMES SALMONELLA TYPHIMURIUM, Strain/Indicator: TA100, Metabolic Activation: NONE, Method: STANDARD PLATE

CCN(Cc1ccccc1)c1ccccc1
mutagenic call (Test System: AMES SALMONELLA TYPHIMURIUM, Strain/Indicator: TA97, Metabolic Activation: HAMSTER, LIVER, S-9, AROCLOR 1254 (10 OR 30%), Method: PREINCUBATION): inactive; negative
mutagenic call (Test System: AMES SALMONELLA TYPHIMURIUM, Strain/Indicator: TA97, Metabolic Activation: NONE, Method: PREINCUBATION): inactive; negative
mutagenic call (Test System: AMES SALMONELLA TYPHIMURIUM, Strain/Indicator: TA97, Metabolic Activation: RAT, LIVER, S-9, AROCLOR 1254 (10 OR 30%), Method: PREINCUBATION): inactive; negative
mutagenic call (Test System: AMES SALMONELLA TYPHIMURIUM, Strain/Indicator: TA98, Metabolic Activation: HAMSTER, LIVER, S-9, AROCLOR 1254 (10 OR 30%), Method: PREINCUBATION): inactive; negative
mutagenic call (Test System: AMES SALMONELLA TYPHIMURIUM, Strain/Indicator: TA98, Metabolic Activation: NONE, Method: PREINCUBATION): inactive; negative
mutagenic call (Test System: AMES SALMONELLA TYPHIMURIUM, Strain/Indicator: TA98, Metabolic Activation: RAT LIVER S-9, PHENOBARBITAL AND BETA-NAPHTHOFLAVONE, Method: PREINCUBATION): inactive; negative
mutagenic call (Test System: AMES SALMONELLA TYPHIMURIUM, Strain/Indicator: TA98, Metabolic Activation: RAT, LIVER, S-9, AROCLOR 1254 (10 OR 30%), Method: PREINCUBATION): inactive; negative
mutagenic call (Test System: AMES SALMONELLA TYPHIMURIUM, Strain/Indicator: TA100, Metabolic Activation: HAMSTER, LIVER, S-9, AROCLOR 1254 (10 OR 30%), Method: PREINCUBATION): inactive; negative
mutagenic call (Test System: AMES SALMONELLA TYPHIMURIUM, Strain/Indicator: TA100, Metabolic Activation: NONE, Method: PREINCUBATION): inactive; negative
mutagenic call (Test System: AMES SALMONELLA TYPHIMURIUM, Strain/Indicator: TA100, Metabolic Activation: RAT LIVER S-9, PHENOBARBITAL AND BETA-NAPHTHOFLAVONE, Method: PREINCUBATION): inactive; negative
mutagenic call (Test System: AMES SALMONELLA TYPHIMURIUM, Strain/Indicator: TA100, Metabolic Activation: RAT, LIVER, S-9, AROCLOR 1254 (10 OR 30%), Method: PREINCUBATION): inactive; negative
mutagenic call (Test System: AMES SALMONELLA TYPHIMURIUM, Strain/Indicator: TA1535, Metabolic Activation: HAMSTER, LIVER, S-9, AROCLOR 1254 (10 OR 30%), Method: PREINCUBATION): inactive; negative
mutagenic call (Test System: AMES SALMONELLA TYPHIMURIUM, Strain/Indicator: TA1535, Metabolic Activation: NONE, Method: PREINCUBATION): inactive; negative
mutagenic call (Test System: AMES SALMONELLA TYPHIMURIUM, Strain/Indicator: TA1535, Metabolic Activation: RAT LIVER S-9, PHENOBARBITAL AND BETA-NAPHTHOFLAVONE, Method: PREINCUBATION): inactive; negative
mutagenic call (Test System: AMES SALMONELLA TYPHIMURIUM, Strain/Indicator: TA1535, Metabolic Activation: RAT, LIVER, S-9, AROCLOR 1254 (10 OR 30%), Method: PREINCUBATION): inactive; negative
mutagenic call (Test System: AMES SALMONELLA TYPHIMURIUM, Strain/Indicator: TA1537, Metabolic Activation: NONE, Method: PREINCUBATION): inactive; negative
mutagenic call (Test System: AMES SALMONELLA TYPHIMURIUM, Strain/Indicator: TA1537, Metabolic Activation: RAT LIVER S-9, PHENOBARBITAL AND BETA-NAPHTHOFLAVONE, Method: PREINCUBATION): inactive; negative
mutagenic call (Test System: AMES SALMONELLA TYPHIMURIUM, Strain/Indicator: TA1538, Metabolic Activation: NONE, Method: PREINCUBATION): inactive; negative
mutagenic call (Test System: AMES SALMONELLA TYPHIMURIUM, Strain/Indicator: TA1538, Metabolic Activation: RAT LIVER S-9, PHENOBARBITAL AND BETA-NAPHTHOFLAVONE, Method: PREINCUBATION): inactive; negative
mutagenic call (Test System: E.COLI, Strain/Indicator: WP2UVRA, Metabolic Activation: NONE, Method: PREINCUBATION): inactive; negative
mutagenic call (Test System: E.COLI, Strain/Indicator: WP2UVRA, Metabolic Activation: RAT LIVER S-9, PHENOBARBITAL AND BETA-NAPHTHOFLAVONE, Method: PREINCUBATION): inactive; negative

Clc1cnc(Oc2ccc(Oc3ncc(Cl)cc3Cl)cc2)c(Cl)c1
mutagenic call [1]: inactive; negative
mutagenic call (Test System: AMES SALMONELLA TYPHIMURIUM, Strain/Indicator: TA98, Metabolic Activation: RAT, LIVER, S-9, PHENOBARBITAL AND 5,6-BENZOFLAVONE, Method: STANDARD PLATE): inactive; negative
mutagenic call (Test System: AMES SALMONELLA TYPHIMURIUM, Strain/Indicator: TA98, Method: STANDARD PLATE): inactive; negative
mutagenic call [2]: inactive; negative
mutagenic call (Test System: AMES SALMONELLA TYPHIMURIUM, Strain/Indicator: TA100, Metabolic Activation: RAT, LIVER, S-9, PHENOBARBITAL AND 5,6-BENZOFLAVONE, Method: STANDARD PLATE): inactive; negative
mutagenic call (Test System: AMES SALMONELLA TYPHIMURIUM, Strain/Indicator: TA100, Method: STANDARD PLATE): inactive; negative
mutagenic call (Test System: AMES SALMONELLA TYPHIMURIUM, Strain/Indicator: TA102, Metabolic Activation: NONE, Method: STANDARD PLATE): inactive; negative
mutagenic call (Test System: AMES SALMONELLA TYPHIMURIUM, Strain/Indicator: TA102, Metabolic Activation: RAT, LIVER, S-9, PHENOBARBITAL AND 5,6-BENZOFLAVONE, Method: STANDARD PLATE): inactive; negative
mutagenic call (Test System: AMES SALMONELLA TYPHIMURIUM, Strain/Indicator: TA102, Method: STANDARD PLATE): inactive; negative

Cc1cccc2cc3c(ccc4ccccc43)cc12
mutagenic call (Test System: AMES SALMONELLA TYPHIMURIUM, Strain/Indicator: TA100, Metabolic Activation: RAT, INTACT HEPATOCYTES, AROCLOR 1254, Method: PREINCUBATION): active; positive
mutagenic call (Test System: AMES SALMONELLA TYPHIMURIUM, Strain/Indicator: TA100, Metabolic Activation: RAT, NADPH-FORTIFIED HOMOGENIZED HEPATOCYTES, AROCLOR 1254, Method: PREINCUBATION): active; positive
mutagenic call (Test System: AMES SALMONELLA TYPHIMURIUM, Strain/Indicator: TA100, Metabolic Activation: RAT, SONICATED HEPATOCYTES, AROCLOR 1254, Method: PREINCUBATION): active; positive

O=[N+]([O-])c1cccc(CO/N=C/c2nc3cc([N+](=O)[O-])ccc3n2Cc2ccc(F)cc2)c1
mutagenic call [1]: inactive; negative
mutagenic call (Test System: AMES SALMONELLA TYPHIMURIUM, Strain/Indicator: TA98, Metabolic Activation: RAT, LIVER, S-9, PHENOBARBITAL AND BETA-NAPHTHOFLAVONE, Method: STANDARD PLATE): inactive; negative
mutagenic call [2]: inactive; negative
mutagenic call (Test System: AMES SALMONELLA TYPHIMURIUM, Strain/Indicator: TA100, Metabolic Activation: RAT, LIVER, S-9, PHENOBARBITAL AND BETA-NAPHTHOFLAVONE, Method: STANDARD PLATE): inactive; negative

Oc1cc2c3ccccc3ccc2c2ccccc12
mutagenic call [1]: inactive; negative
mutagenic call (Test System: AMES SALMONELLA TYPHIMURIUM, Strain/Indicator: TA98, Metabolic Activation: RAT, LIVER, S-9, AROCLOR 1254, Method: STANDARD PLATE): inactive; negative
mutagenic call [2]: inactive; negative

Cn1c(N)nc2nc3ccncc3cc21
mutagenic call (Test System: AMES SALMONELLA TYPHIMURIUM, Strain/Indicator: TA98, Metabolic Activation: RAT, LIVER, S-9, AROCLOR 1254A, Method: STANDARD PLATE): inactive; negative
mutagenic call (Test System: AMES SALMONELLA TYPHIMURIUM, Strain/Indicator: YG1024, Metabolic Activation: RAT, LIVER, S-9, AROCLOR 1254A, Method: STANDARD PLATE): active; positive
